Values after ≈ are worked out from the molar mass of the structure shown. Active and inactive are the calls of the source. The rule behind the calls is not given here.
How the values were obtained:
Staphylococcus aureus [1] = experiment: Antimicrobial activity against methicillin-resistant Staphylococcus aureus ATCC 43300; format: functional; conditions: for MIC50 / MIC90: Staphylococcus aureus, ATCC 43300
Staphylococcus aureus [2] = experiment: Antimicrobial activity against methicillin-susceptible Staphylococcus aureus ATCC 29213; format: functional; conditions: for MIC50 / MIC90: Staphylococcus aureus, ATCC 29213
Enterococcus faecalis [3] = experiment: Antimicrobial activity against vancomycin-susceptible Enterococcus faecalis ATCC 29212; format: functional; conditions: for MIC50 / MIC90: Enterococcus faecalis, ATCC 29212
Enterococcus faecalis [4] = experiment: Antimicrobial activity against vancomycin-resistant Enterococcus faecalis ATCC 51299; format: functional; conditions: for MIC50 / MIC90: Enterococcus faecalis, ATCC 51299
Streptococcus pyogenes = experiment: Antimicrobial activity against Streptococcus pyogenes ATCC 19615; format: functional; conditions: for MIC50 / MIC90: Streptococcus pyogenes, ATCC 19615
Prescottella equi = experiment: Antimicrobial activity against Rhodococcus equi ATCC 6939; format: functional; conditions: for MIC50 / MIC90: Rhodococcus (subgen. Prescottella) equi, ATCC 6939
Erythrocyte = experiment: Effect on hemolytic activity in human RBC above 50 mg/liter; format: functional, cell-based

SMILES | MIC50 (Staphylococcus aureus [1]) [µg/mL] | MIC90 (Staphylococcus aureus [1]) [µg/mL] | MBC50 (Staphylococcus aureus [2]) [µg/mL] | MBC90 (Staphylococcus aureus [2]) [µg/mL] | MIC50 (Staphylococcus aureus [2]) [µg/mL] | MIC90 (Staphylococcus aureus [2]) [µg/mL] | MBC50 (Enterococcus faecalis [3]) [µg/mL] | MBC90 (Enterococcus faecalis [3]) [µg/mL] | MIC50 (Enterococcus faecalis [3]) [µg/mL] | MIC90 (Enterococcus faecalis [3]) [µg/mL] | MIC50 (Enterococcus faecalis [4]) [µg/mL] | MIC90 (Enterococcus faecalis [4]) [µg/mL] | MBC50 (Streptococcus pyogenes) [µg/mL] | MBC90 (Streptococcus pyogenes) [µg/mL] | MIC50 (Streptococcus pyogenes) [µg/mL] | MIC90 (Streptococcus pyogenes) [µg/mL] | MBC50 (Prescottella equi) [µg/mL] | MBC90 (Prescottella equi) [µg/mL] | MIC50 (Prescottella equi) [µg/mL] | MIC90 (Prescottella equi) [µg/mL] | also measured
CCCCCCCCCCCCCCCC(=O)N[C@@H](CCCCN)C(=O)N[C@@H](CCCCN)C(=O)O | 4 (≈ 7.8 µM) | 8 (≈ 15.6 µM) | 8 (≈ 15.6 µM) | 16 (≈ 31.2 µM) | 4 (≈ 7.8 µM) | 8 (≈ 15.6 µM) | 4 (≈ 7.8 µM) | 8 (≈ 15.6 µM) | 2 (≈ 3.9 µM) | 4 (≈ 7.8 µM) | 2 (≈ 3.9 µM) | 4 (≈ 7.8 µM) | 2 (≈ 3.9 µM) | 4 (≈ 7.8 µM) | 1 (≈ 1.95 µM) | 2 (≈ 3.9 µM) | 4 (≈ 7.8 µM) | 16 (≈ 31.2 µM) | 2 (≈ 3.9 µM) | 16 (≈ 31.2 µM) | MBC90 (Enterococcus faecalis [4]): 16 µg/mL (≈ 31.2 µM); Activity (Erythrocyte): Active
CC1(C)S[C@@H]2[C@H](NC(=O)[C@H](N)c3ccc(O)cc3)C(=O)N2[C@H]1C(=O)O [AMOXICILLIN] | 32 (≈ 87.6 µM) | 128 (≈ 350 µM) | 8 (≈ 21.9 µM) | 16 (≈ 43.8 µM) | 1 (≈ 2.74 µM) | 4 (≈ 10.9 µM) | 16 (≈ 43.8 µM) | 64 (≈ 175 µM) | 4 (≈ 10.9 µM) | 16 (≈ 43.8 µM) | 16 (≈ 43.8 µM) | 64 (≈ 175 µM) | 4 (≈ 10.9 µM) | 8 (≈ 21.9 µM) | 0.25 (≈ 0.684 µM) | 2 (≈ 5.47 µM) | 8 (≈ 21.9 µM) | 32 (≈ 87.6 µM) | 1 (≈ 2.74 µM) | 2 (≈ 5.47 µM) | MBC50 (Staphylococcus aureus [1]): 64 µg/mL (≈ 175 µM); MBC90 (Staphylococcus aureus [1]): 256 µg/mL (≈ 701 µM); MBC50 (Enterococcus faecalis [4]): 64 µg/mL (≈ 175 µM); MBC90 (Enterococcus faecalis [4]): 128 µg/mL (≈ 350 µM)
CN[C@H](CC(C)C)C(=O)N[C@H]1C(=O)N[C@@H](CC(N)=O)C(=O)N[C@H]2C(=O)N[C@H]3C(=O)N[C@H](C(=O)N[C@H](C(=O)O)c4cc(O)cc(O)c4-c4cc3ccc4O)[C@H](O)c3ccc(c(Cl)c3)Oc3cc2cc(c3O[C@@H]2O[C@H](CO)[C@@H](O)[C@H](O)[C@H]2O[C@H]2C[C@](C)(N)[C@H](O)[C@H](C)O2)Oc2ccc(cc2Cl)[C@H]1O [VANCOMYCIN] | 0.5 (≈ 0.345 µM) | 2 (≈ 1.38 µM) | 0.5 (≈ 0.345 µM) | 2 (≈ 1.38 µM) | 0.5 (≈ 0.345 µM) | 1 (≈ 0.69 µM) | 2 (≈ 1.38 µM) | 4 (≈ 2.76 µM) | 1 (≈ 0.69 µM) | 2 (≈ 1.38 µM) | 32 (≈ 22.1 µM) | 64 (≈ 44.2 µM) | 1 (≈ 0.69 µM) | 2 (≈ 1.38 µM) | 0.5 (≈ 0.345 µM) | 1 (≈ 0.69 µM) | 8 (≈ 5.52 µM) | 16 (≈ 11 µM) | 0.5 (≈ 0.345 µM) | 1 (≈ 0.69 µM) | MBC50 (Staphylococcus aureus [1]): 0.5 µg/mL (≈ 0.345 µM); MBC90 (Staphylococcus aureus [1]): 2 µg/mL (≈ 1.38 µM); MBC50 (Enterococcus faecalis [4]): 64 µg/mL (≈ 44.2 µM); MBC90 (Enterococcus faecalis [4]): 256 µg/mL (≈ 177 µM)
CC(=O)NC[C@H]1CN(c2ccc(N3CCOCC3)c(F)c2)C(=O)O1 [LINEZOLID] | 0.5 (≈ 1.48 µM) | 1 (≈ 2.96 µM) | 1 (≈ 2.96 µM) | 2 (≈ 5.93 µM) | 0.5 (≈ 1.48 µM) | 2 (≈ 5.93 µM) | 2 (≈ 5.93 µM) | 4 (≈ 11.9 µM) | 1 (≈ 2.96 µM) | 2 (≈ 5.93 µM) | 1 (≈ 2.96 µM) | 2 (≈ 5.93 µM) | 1 (≈ 2.96 µM) | 2 (≈ 5.93 µM) | 0.5 (≈ 1.48 µM) | 1 (≈ 2.96 µM) | 8 (≈ 23.7 µM) | 16 (≈ 47.4 µM) | 0.5 (≈ 1.48 µM) | 1 (≈ 2.96 µM) | MBC50 (Staphylococcus aureus [1]): 0.5 µg/mL (≈ 1.48 µM); MBC50 (Enterococcus faecalis [4]): 4 µg/mL (≈ 11.9 µM)

— ChEMBL document CHEMBL1142149, “In vitro activities of the lipopeptides palmitoyl (Pal)-Lys-Lys-NH(2) and Pal-Lys-Lys alone and in combination with antimicrobial agents against multiresistant gram-positive cocci” (2007)
